Experiment: wn = mass fraction of the nth substance listed
Conditions: 101 kPa, Liquid; for viscosity: Capillary tube (Ostwald / Ubbelohde) method; for speed of sound: Linear variable-path acoustic interferometer; for mass density: Pycnometric method

OC[C@H]1O[C@@](CO)(O[C@H]2O[C@H](CO)[C@@H](O)[C@H](O)[C@H]2O)[C@@H](O)[C@@H]1O [D-sucrose] + O
Conditions	mass density [kg/m3]	speed of sound [m/s]	viscosity [mPa·s]
293.15 K, w1 = 0.05	1018.91	1501.4	1.214
293.15 K, w1 = 0.1	1039.28	1522.5	1.376
293.15 K, w1 = 0.15	1060.31	1533.4	1.609
293.15 K, w1 = 0.2	1082.73	1545.2	1.932
298.15 K, w1 = 0.05	1017.19	1516.5	1.011
298.15 K, w1 = 0.1	1037.45	1531.8	1.183
298.15 K, w1 = 0.15	1058.49	1543.6	1.418
298.15 K, w1 = 0.2	1080.77	1555.3	1.756
303.15 K, w1 = 0.05	1015.46	1526.6	0.9129
303.15 K, w1 = 0.1	1035.61	1541.8	1.061
303.15 K, w1 = 0.15	1056.67	1553	1.252
303.15 K, w1 = 0.2	1078.8	1564.6	1.549
308.15 K, w1 = 0.05	1013.72	1537.8	0.8285
308.15 K, w1 = 0.1	1033.76	1551.6	0.9614
308.15 K, w1 = 0.15	1054.84	1562	1.129
308.15 K, w1 = 0.2	1076.84	1575.2	1.396
313.15 K, w1 = 0.05	1011.98	1547.7	0.7457
313.15 K, w1 = 0.1	1031.93	1561.8	0.8804
313.15 K, w1 = 0.15	1053.01	1570.8	1.025
313.15 K, w1 = 0.2	1074.88	1583.9	1.25
318.15 K, w1 = 0.05	1010.23	1557.2	0.6946
318.15 K, w1 = 0.1	1030.09	1570.9	0.8179
318.15 K, w1 = 0.15	1051.2	1579.2	0.9402
318.15 K, w1 = 0.2	1072.93	1592.8	1.15

From the NIST ThermoML archive (doi:10.1016/j.jct.2012.11.001)
